{"source": "ChEMBL document CHEMBL4765275", "about": "“Discovery of novel tertiary amide derivatives as NEDDylation pathway activators to inhibit the tumor progression in vitro and in vivo” (Eur J Med Chem, 2020)", "key": {"MGC-803 [1]": {"test_system": "MGC-803", "test": "Induction of morphological changes in human MGC-803 cells assessed as nuclear condensation at 50 to 150 nmol/L measured after 48 hrs by DAPI staining based assay", "assay_type": "functional, cell-based", "settings": "dose 50-150 nmol/L"}, "MGC-803 [2]": {"test_system": "MGC-803", "test": "Induction of apoptosis in human MGC-803 cells assessed as viable cells at 50 nmol/L measured after 48 hrs by Annexin V-FITC/propidium iodide staining based flow cytometry (reference value: 91.7%)", "assay_type": "functional", "settings": "read-out: Activity"}, "MGC-803 [3]": {"test_system": "MGC-803", "test": "Induction of apoptosis in human MGC-803 cells assessed as necrotic cells at 150 nmol/L measured after 48 hrs by Annexin V-FITC/propidium iodide staining based flow cytometry (reference value: 0.5%)", "assay_type": "functional"}, "MGC-803 [4]": {"test_system": "MGC-803", "test": "Induction of apoptosis in human MGC-803 cells assessed as increase in cleaved PARP expression at 50 to 150 nmol/L measured after 48 hrs by Western blot analysis", "assay_type": "functional, cell-based", "settings": "dose 50-150 nmol/L"}, "MGC-803 [5]": {"test_system": "MGC-803", "test": "Induction of apoptosis in human MGC-803 cells assessed as increase in activated caspase-8 expression at 50 to 150 nmol/L measured after 48 hrs by Western blot analysis", "assay_type": "functional, cell-based", "settings": "dose 50-150 nmol/L"}, "[6]": {"molecular_target": "T1, NEDD8-activating enzyme E1 regulatory subunit (Homo sapiens) (UniProt Q13564)", "T1 sequence (whole entry)": "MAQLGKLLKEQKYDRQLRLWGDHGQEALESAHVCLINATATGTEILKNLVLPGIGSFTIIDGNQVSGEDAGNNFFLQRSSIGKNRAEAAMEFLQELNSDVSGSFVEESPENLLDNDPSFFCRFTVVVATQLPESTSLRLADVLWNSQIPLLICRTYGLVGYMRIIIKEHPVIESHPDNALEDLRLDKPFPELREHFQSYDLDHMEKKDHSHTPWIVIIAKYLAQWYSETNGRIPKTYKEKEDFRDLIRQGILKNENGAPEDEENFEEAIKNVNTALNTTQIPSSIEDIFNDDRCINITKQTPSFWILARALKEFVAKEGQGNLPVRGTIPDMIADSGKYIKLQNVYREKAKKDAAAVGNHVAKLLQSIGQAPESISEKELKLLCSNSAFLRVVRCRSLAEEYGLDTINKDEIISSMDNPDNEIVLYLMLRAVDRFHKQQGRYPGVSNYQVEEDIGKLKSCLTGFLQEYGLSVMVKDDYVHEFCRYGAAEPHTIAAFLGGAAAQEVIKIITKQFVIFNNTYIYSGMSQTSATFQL", "test": "Activation of NAE1-mediated neddylation in human MGC-803 cells assessed as increase in Nedd8-[…] adduct formation at 50 to 150 nmol/L measured after 24 hrs by Western blot analysis", "assay_type": "cell-based", "settings": "filed as activator, dose 50-150 nmol/L"}}, "note": "Calls of active or inactive are those of the source. No cut-off for these calls is given here.", "data": [{"smiles": "COc1ccc(CN(C(=O)Cc2cccs2)c2cc(OC)c(OC)c(OC)c2)cc1", "values": [{"measurement": "Activity", "setting": "MGC-803 [1]", "value": "Active"}, {"measurement": "viability at 0.05 µM", "setting": "MGC-803 [2]", "value": 87.7, "unit": "%"}, {"measurement": "Activity", "setting": "MGC-803 [3]", "value": 3.8, "unit": "%"}, {"measurement": "Activity", "setting": "MGC-803 [4]", "value": "Active"}, {"measurement": "Activity", "setting": "MGC-803 [5]", "value": "Active"}, {"measurement": "Activity", "setting": "[6]", "value": "Active"}]}]}
